Results as given in patent US20240057638A1, “COMPOSITIONS FOR REDUCING METHANE EMISSION, METHODS FOR IMPROVING THE METABOLIC EFFICIENCY OF RUMINANT ANIMALS AND METHANOGENESIS INHIBITOR ADMINISTRATION” (MOOTRAL INNOVATIONS LIMITED, priority 2020, published 2024).

Tested on: Methanococcus maripaludis
Assay: Inhibition of methane production by Methanococcus maripaludis culture (pressure drop by manometer after 24 h)
Type: cell-based
Conditions: for % Inhibition Gas: 37° C.
Protocol: For this experiment, bromoform was prepped at 100 mM by adding 8.75 μl bromoform to 991 μl DMSO. This was diluted 10x diluted to generate a 10 mM solution and further diluted to generate 0.12- and 0.156-mM stock solutions. Allicin stock solutions were prepared by adding 48.6 μl allicin to 951.4 μl DMSO to make a 300 mM stock solution and 32.5 μl allicin to 967.5 μl DMSO to make a 200 mM stock solution. The experiment was set up by adding 5 ml of M141 medium (https://www.dsmz.de/microorganisms/medium/pdf/DSMZ_Medium141.pdf) to a screw cap Hungate tube followed by the addition of 5 μl allicin and/or 5 μl bromoform or 10 μl DMSO as follows: • Tube 1: DMSO (10 μl) • Tube 2: Bromoform (5 μl 0.120 mM) (120 nM final)+5 μl DMSO • Tube 3: Bromoform (5 μl 0.156 mM) (156 nM final)+5 μl DMSO • Tube 4: Allicin (5 μl 200 mM) (200 μM final)+5 μl DMSO • Tube 5: Allicin (5 μl 300 mM) (300 μM final)+5 μl DMSO • Tube 6: Bromoform (5 μl 0.120 mM) (120 nM final)+Allicin (5 μl 200 mM) (200 μM final) • Tube 7: Bromoform (5 μl 0.120 mM) (120 nM final)+Allicin (5 μl 300 mM) (300 μM final) • Tube 8: Bromoform (5 μl 0.156 mM) (156 nM final)+Allicin (5 μl 200 mM) (200 μM final) • Tube 9: Bromoform (5 μl 0.156 mM) (156 nM final)+Allicin (5 μl 300 mM) (300 μM final)
After the addition of the test substances, 500 μl of an overnight M. maripaludis culture was added to each reaction tube. Each tube was gassed with 80% H2/20% CO2 to 240 kPa and incubated at 37° C. for 24 h.
After the 24 h incubation the pressure inside the tube was measured using a manometer. Given that 5 moles of H2/CO2 are consumed to generate 1 mole of CH4 the drop in pressure observed was used to calculate the amount of methane by the control and test reactions from which a percent inhibition was calculated.
For this experiment, bromoform was prepped at 100 mM by adding 8.75 μl bromoform to 991 μl DMSO. This was diluted 10× diluted to generate a 10 mM solution and further diluted to generate 0.10- and 0.156-mM stock solutions. The sample was prepared by adding 245 mg NXRH214 powder to 35 ml M141 medium (https://www.dsmz.de/microorganisms/medium/pdf/DSMZ_Medium141.pdf) to generate a 7 mg/ml stock solution. NXRH214 powder is a garlic powder (allicin) and citrus extract (polyphenol flavonoid mix) with a ratio of 93:7, where the flavonoid mix comprises mainly naringin and neohesperidin.

[1] = Methanococcus maripaludis, read-out: % Inhibition Gas

Question: For `BrC(Br)Br` [Bromoform, bromoform], which inhibition at 0.1 µM [1] is on record?
Answer: 0%

Question: What about the inhibition at 0.156 µM [1] of the same molecule?
Answer: 0.5%

Question: How did the “% Inhibition Gas” value (Allicin 200 μM with DMSO) turn out when `C=CCS[S@@+]([O-])CC=C` (stereo in doubt) [Allicin, allicin] was run?
Answer: 0%

Question: What about the “% Inhibition Gas” value (Allicin 300 μM with DMSO) of the same molecule?
Answer: 19%
